A short description of data set [1]: RP, Waters ACQUITY UPLC BEH C18, 100 × 1 mm, 1.7 µm, 50 °C, 0.3 mL/min, estimated dead time 0.17 min; A: water + 10 mM ammonium bicarbonate; B: 10% water + 90% methanol + 10 mM ammonium bicarbonate; gradient (min/%B) 0/0 15/100 21/100 22/0 30/0. The note with it: stereoisomer not certain.
The nature of data set [2]: RP, Waters ACQUITY UPLC BEH C18, 100 × 1 mm, 1.7 µm, 50 °C, 0.3 mL/min, estimated dead time 0.17 min; A: water + 0.1% formic acid + 20 mM ammonium formate; B: methanol + 0.1% formic acid + 20 mM ammonium formate; gradient (min/%B) 0/0 15/100 21/100 22/0 30/0. Particulars: stereoisomer not certain.

SMILES strings stand for the structures.

As for `N#Cc1c(Cl)c(Cl)c(O)c(C(N)=O)c1Cl`, the figures for the LC retention time in data set [1] and in data set [2] were 8.11 min and 10 min, respectively.

With `CON=C(C(=O)O)c1ccccc1CON=C(C)c1cccc(C(F)(F)F)c1`, the LC retention time in data set [1] is 14.5 min; in data set [2], 15.6 min.

As to `Cn1c(=O)nc(NC(C)(C)C)[nH]c1=O`, the LC retention time in data set [1] is 6.95 min; in data set [2] it was 8.56 min.

Turning to `CCc1cccc(C)c1N(C(=O)CS(=O)(=O)O)C(C)C(=O)O` (stereo not drawn), the LC retention time in data set [1] is 8.62 min; in data set [2], 11 min.

For the compound `CCCN(CCOc1c(Cl)cc(Cl)cc1Cl)C(N)=O`, the LC retention time in data set [1] is 16.2 min; in data set [2] it was 15.9 min.

As for `CN1COCN(Cc2cnc(Cl)s2)C1=N`, the LC retention time in data set [1] was 6.91 min; in data set [2], 6.25 min.

`CN1COCN(Cc2cnc(Cl)s2)C1=O`: the LC retention time in data set [1] was 9.5 min; in data set [2] it was 9.42 min.

Turning to `CN1Cc2c(ccc3c2OCO3)C2C(O)Cc3cc4c(cc3C21)OCO4` (single isomer, unassigned; (+)) [(+)-Chelidonine], the LC retention time was 15.3 min in data set [1] and 9.34 min in data set [2].

Consider `C=C1C(=O)OC2C=C(C)CCC=C(C)CCC12` (single isomer, unassigned; (+)) [(+)-Costunolide], for which the LC retention time was 15.3 min in data set [1] and 15 min in data set [2].

Consider `COc1ccc2c(c1O)-c1c(OC)c(OC)cc3c1C(C2)N(C)CC3` (single isomer, unassigned; (+)) [(+)-Isocorydin], for which the LC retention time in data set [1] was 13.6 min; in data set [2], 8.65 min.

Turning to `COc1cc2c3c(c1OC)-c1ccccc1CC3N(C)CC2` (single isomer, unassigned; (-)) [(-)-Nuciferine], the LC retention time was 15.6 min in data set [1] and 10.5 min in data set [2].

Regarding `CN1C2CC(OC(=O)C(CO)c3ccccc3)CC1C1OC12` (single isomer, unassigned; (-)) [(-)-Scopolamine], the LC retention time in data set [1] was 11.2 min; in data set [2], 7.05 min.

For `O=C1CC2OCC=C3CN4CCC56c7ccccc7N1C5C2C3CC46` (single isomer, unassigned; (-)) [(-)-Strychnine], the LC retention time in data set [1] was 12.3 min; in data set [2] it was 7.73 min.

As for `CCC1CCCC(OC2CCC(N(C)C)C(C)O2)C(C)C(=O)C2=CC3C(C=C(C)C4CC(OC5OC(C)C(OC)C(OC)C5OC)CC43)C2CC(=O)O1` (single isomer, unassigned; isomer 2) [Spinosad (Isomer 2)], the figures for the LC retention time in data set [1] and in data set [2] were 19.2 min and 16.1 min, respectively.

Regarding `CCC(=NOCC=CCl)C1=C(O)CC(C2CCOCC2)CC1=O` (single isomer, unassigned; peak1) [Tepraloxydim Peak1], the LC retention time in data set [1] was 9.25 min; in data set [2], 14.7 min.

As to `NC(=Nc1ccccc1)Nc1ccccc1` [1,3-Diphenylguanidine], the LC retention time is 10 min in data set [1] and 8.76 min in data set [2].

As for `Nc1cccc2c(N)cccc12` [1,5-Naphthalenediamine], the results for the LC retention time in data set [1] and in data set [2] were 6.92 min and 2.7 min, respectively.

In the case of `O=C(Nc1ccccc1)Nc1ccccc1Cl` [1-(2-CHLOROPHENYL)-3-PHENYLUREA], the LC retention time in data set [1] is 14.2 min; in data set [2], 13.9 min.

Consider `CNC(=O)Nc1ccc(Cl)c(Cl)c1` [1-(3,4-Dichlorphenyl)-3-methyl-Harnstoff], for which the figures for the LC retention time in data set [1] and in data set [2] were 13 min and 12.8 min, respectively.

In the case of `Cn1cnc2c1c(=O)n(CCCC(=O)O)c(=O)n2C` [1-(3-carboxypropyl)-3,7-dimethylxanthine], the LC retention time in data set [1] is 6.58 min; in data set [2], 8.38 min.

Take `CCCCCCCCCCS(=O)(=O)O` [1-Decanesulfonic acid]: the values for the LC retention time in data set [1] and in data set [2] were 14.7 min and 15.1 min, respectively.

`c1ccc2n[nH]nc2c1` [1H-Benzotriazole]: the values for the LC retention time in data set [1] and in data set [2] were 6.66 min and 7.88 min, respectively.

On to `CC(=O)OC1C(C)OC(n2cc(F)c(N)nc2=O)C1OC(C)=O` (stereo not drawn) [2',3'-Di-O-acetyl-5'-deoxy-5-fluorocytidine], for which the LC retention time in data set [1] was 9.61 min; in data set [2], 9.43 min.

`CCCCCCCCCCSCCOCCO` [2(2(decylsulfanyl)ethoxy)ethanol]: the values for the LC retention time in data set [1] and in data set [2] were 18.1 min and 17.7 min, respectively.

For `CCCCCCCCSCCOCCO` [2(2(octylsulfanyl)ethoxy)ethanol], the LC retention time in data set [1] is 16.9 min; in data set [2], 16.5 min.

Turning to `c1ccc2sc(N3CCOCC3)nc2c1` [2(4-morpholinyl)benzothiazole], the values for the LC retention time in data set [1] and in data set [2] were 13.2 min and 12.7 min, respectively.

Regarding `Nc1ccc(Cc2ccc(N)c(Cl)c2)cc1Cl` [2,2'-dichloro-4,4'-methylenedianiline], the values for the LC retention time in data set [1] and in data set [2] were 14.3 min and 13.9 min, respectively.

Take `c1ccc2sc(SSc3nc4ccccc4s3)nc2c1` [2,2-Dibenzothiazoyl disulfide]: the LC retention time in data set [1] was 13.9 min; in data set [2], 17.2 min.

Regarding `O=C(O)c1ccc(Cl)cc1Cl` [2,4-Dichlorobenzoic acid], the LC retention time in data set [1] was 7.64 min; in data set [2] it was 12.7 min.

As to `O=C(O)COc1ccc(Cl)cc1Cl` [2,4-Dichlorophenoxyacetic acid], the LC retention time in data set [1] is 10.6 min; in data set [2], 12.9 min.

On to `Cc1cc(C)c2ccccc2n1` [2,4-Dimethylchinolin], for which the LC retention time was 13.6 min in data set [1] and 7.37 min in data set [2].

As for `O=[N+]([O-])c1ccc(O)c([N+](=O)[O-])c1` [2,4-Dinitrophenol], the results for the LC retention time in data set [1] and in data set [2] were 6.21 min and 9.71 min, respectively.

Turning to `Nc1c(Cl)cc(C(F)(F)F)cc1Cl` [2,6-Dichloro-4-trifluoromethylaniline], the LC retention time in data set [1] is 15.9 min; in data set [2], 16.2 min.

For `NC(=O)c1c(Cl)cccc1Cl` [2,6-Dichlorobenzamide], the LC retention time in data set [1] was 7.59 min; in data set [2], 7.57 min.

In the case of `CC(C)(C)c1cccc(C(C)(C)C)c1O` [2,6-di-tert-Butylphenol], the LC retention time is 16.6 min in data set [1] and 16.2 min in data set [2].

For the compound `COCCOCCOCCO` [2-(2-(2-Methoxyethoxy)ethoxy)ethanol], the LC retention time in data set [1] is 6.68 min; in data set [2] it was 6.67 min.

With `O=Cc1ccccc1Nc1ccccc1Cl` [2-(2-(Chlorophenyl)amino)benzaldehyde], the LC retention time was 16 min in data set [1] and 15.7 min in data set [2].

Take `CSc1nc2ccccc2s1` [2-(Methylthio)benzothiazole]: the LC retention time in data set [1] is 14.3 min; in data set [2], 14 min.

Consider `COc1cc(OC)nc(N)n1` [2-Amino-4,6-dimethoxypyrimidine], for which the LC retention time in data set [1] is 8.74 min; in data set [2], 7.19 min.

Turning to `CCCCOC(=O)COC(=O)c1ccccc1C(=O)OCCCC` [2-Butoxy-oxoethylbutylphthalate], the LC retention time in data set [1] was 16.6 min; in data set [2] it was 16.2 min.

Consider `Clc1nc2ccccc2s1` [2-Chlorobenzothiazole], for which the LC retention time in data set [1] is 13.8 min; in data set [2], 13.5 min.

`Clc1ccccn1` [2-Chloropyridine]: the figures for the LC retention time in data set [1] and in data set [2] were 8.38 min and 8.31 min, respectively.

With `CCCCCCOC(=O)c1ccccc1C(=O)OCC(CC)CCCC` (stereo not drawn) [2-Ethylhexyl(hexyl)phthalate], the LC retention time in data set [1] was 19.4 min; in data set [2] it was 18.9 min.

In the case of `CCCCC(CC)COP(=O)(Oc1ccccc1)Oc1ccccc1` (stereo not drawn) [2-Ethylhexyldiphenyl phosphate], the LC retention time in data set [1] was 18.1 min; in data set [2] it was 17.7 min.

With `NC(=O)N1c2ccccc2C=Cc2cc(O)ccc21` [2-Hydroxycarbamazepine], the LC retention time in data set [1] is 10.8 min; in data set [2], 10.7 min.

Regarding `Cc1cc(=O)[nH]c(C(C)C)n1` [2-Isopropyl-6-methyl-pyrimidin-4-ol], the LC retention time was 8.01 min in data set [1] and 7.61 min in data set [2].

In the case of `CC(C)c1ccc2sc3ccccc3c(=O)c2c1` [2-Isopropylthioxanthone], the figures for the LC retention time in data set [1] and in data set [2] were 17.5 min and 17.2 min, respectively.

Take `S=c1[nH]c2ccccc2s1` [2-Mercaptobenzothiazole]: the figures for the LC retention time in data set [1] and in data set [2] were 8.11 min and 11 min, respectively.

On to `Cc1nc2ccccc2s1` [2-Methylbenzothiazole], for which the results for the LC retention time in data set [1] and in data set [2] were 12.6 min and 12.3 min, respectively.

Turning to `c1ccc2sc(SN3CCOCC3)nc2c1` [2-Morpholinothiobenzothiazole], the values for the LC retention time in data set [1] and in data set [2] were 10 min and 12.1 min, respectively.

Turning to `CCCCCCCCn1sccc1=O` [2-Octyl-4-isothiazolin-3-one], the LC retention time in data set [1] was 15.3 min; in data set [2], 15 min.

For the compound `Oc1cc(Cl)c(Cl)c(Cl)c1` [3,4,5-trichlorophenol], the LC retention time in data set [1] was 14.2 min; in data set [2], 15.2 min.

Turning to `O=P(OCCCCl)(OCCCCl)OCCCCl` [Tris(3-chloropropyl) phosphate], the LC retention time in data set [1] was 14.6 min.

For the compound `CCC(C)(NC(=O)c1cc(Cl)c(C)c(Cl)c1)C(=O)CCl` (stereo not drawn) [Zoxamide], in data set [1], the LC retention time was 16 min.

For `Cc1ccccc1N` [o-Toluidine], the LC retention time in data set [1] was 9.21 min.

Consider `Cc1ccccc1N=C=O` [o-Tolyl isocyanate], for which the LC retention time in data set [1] was 8.18 min.

The values above are taken from the RepoRT retention time repository (doi:10.1021/acs.analchem.1c00972).
